Experimental data reported in US6140353A, “N-(4-carb-amimidophenyl)glycineamide derivatives” (Hoffmann-La Roche Inc., priority 1997, dated 2000).
Counter-ions that a name gives are not always drawn.

These molecules were tested against T1, factor VIIa/tissue factor complex (Homo sapiens, UniProt P08709) (assay: Inhibition of the amidolytic activity of the factor VIIa/tissue factor complex (chromogenic peptide substrate)). Details: chromogenic substrate Chromozym-tPA (3.5 mM), pH 7.5, room temperature, 15 minutes incubation, 10 minutes kinetic reading.
T1 construct: 9 nM of soluble factor VIIa
T1 sequence (P08709 213-466 limits assumed): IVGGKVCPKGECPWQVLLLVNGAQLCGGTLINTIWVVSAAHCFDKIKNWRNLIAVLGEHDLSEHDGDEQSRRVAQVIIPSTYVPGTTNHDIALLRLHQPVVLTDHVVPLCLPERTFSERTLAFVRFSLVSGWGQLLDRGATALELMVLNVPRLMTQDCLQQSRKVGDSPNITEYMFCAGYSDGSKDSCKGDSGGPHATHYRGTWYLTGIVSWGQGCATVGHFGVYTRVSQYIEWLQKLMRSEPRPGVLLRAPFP
T1 sequence (P08709 61-212 partner limits assumed): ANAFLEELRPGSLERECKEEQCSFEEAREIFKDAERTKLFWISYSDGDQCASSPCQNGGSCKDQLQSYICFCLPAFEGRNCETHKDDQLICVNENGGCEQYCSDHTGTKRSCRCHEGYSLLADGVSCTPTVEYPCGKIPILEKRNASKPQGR
T1 sequence (P13726 33-295 partner): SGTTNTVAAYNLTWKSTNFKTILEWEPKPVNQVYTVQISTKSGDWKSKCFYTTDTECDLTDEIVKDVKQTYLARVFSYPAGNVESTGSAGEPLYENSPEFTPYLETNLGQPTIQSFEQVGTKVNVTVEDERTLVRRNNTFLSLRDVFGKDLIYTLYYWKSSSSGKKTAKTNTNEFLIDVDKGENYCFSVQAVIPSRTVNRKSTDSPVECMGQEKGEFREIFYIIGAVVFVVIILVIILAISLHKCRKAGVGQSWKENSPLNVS
Type: biochemical
Procedure: The measurements were carried out on microtiter plates at room temperature. To this end, per well of the plate, 100 μl of a solution of 26 nM of tissue factor, 9 nM of soluble factor VIIa and 8 mM of calcium chloride were added to 25 μl of a solution of the inhibitor in a buffer [pH 7.5, 100 mM, comprising 0.14 M NaCl, 0.1 M N(2-hydroxyethyl)piperazine-N'-(2-ethanesulphonic acid) (HEPES), 0.5 mg/l of fatty-acid-free BSA (bovine serum albumin) and 0.05% NaN3 ]. After an incubation time of 15 minutes, the reaction was started by addition of 50 μl of chromogenic substrate Chromozym-tPA (3.5 mM, MeSO2 -D-Phe-Gly-Arg-paranitroanilide), and the hydrolysis of the substrate was followed spectrophotometrically on a kinetic microtiter plate reader over 10 minutes. Using the plot of the inhibition curves, the Ki values were determined according to the method described in Biochem. J., 55:170-171 (1953).

In order of rising Ki:
1. CCOc1cc(C(Nc2ccc(C(=N)N)cc2)C(=O)NCc2ccccc2)ccc1OCc1ccccc1 (racemic) [Example 5g, (R,S)-N-benzyl-2-(4-benzyloxy-3-ethoxyphenyl)-2-(4-carbamimidoylphenylamino)acetamide hydrochloride]  44 nM
2. COc1cc(C(Nc2ccc(C(=N)N)cc2)C(=O)NCc2ccccc2)ccc1OCc1ccccc1 (racemic) [Example 1, (R,S)-N-benzyl-2-(4-benzyloxy-3-methoxyphenyl)-2-(4-carbamimidoylphenylamino)acetamide hydrochloride]  50 nM
3. CCOc1ccc(C(Nc2ccc(C(=N)N)cc2)C(=O)NCc2ccccc2)cc1OCC (racemic) [Example 5d, (R,S)-N-benzyl-2-(4-carbamimidoylphenylamino)-2-(3,4-diethoxyphenyl)acetamide hydrochloride]  110 nM
4. COc1cc(C(Nc2ccc(C(=N)N)cc2)C(=O)NCc2ccccc2)ccc1OCc1ccc2[nH]ccc2c1 (racemic) [Example 7e, (R,S)-N-benzyl-2-(4-carbamimidoylphenylamino)-2-[4-(1H-indol-5-ylmethoxy)-3-methoxyphenyl]acetamide acetate]  110 nM
5. COc1cc(C(Nc2ccc(C(=N)N)cc2)C(=O)NCc2ccccc2)c(NS(=O)(=O)c2ccccc2)cc1O (stereo not shown) [Example 10, 2-(2-phenylsulphonylamino-4-hydroxy-5-methoxyphenyl)-N-benzyl-2-(4-carbamimidoylphenylamino)acetamide acetate]  112 nM
6. COc1cc(C(Nc2ccc(C(=N)N)cc2)C(=O)NCc2ccccc2)c(NS(=O)(=O)c2ccccc2)cc1OCc1ccccc1 (stereo not shown) [Example 8, 2-(2-phenylsulphonylamino-4-benzyloxy-5-methoxyphenyl)-N-benzyl-2-(4-carbamimidoylphenylamino)acetamide acetate]  150 nM
7. COc1ccc(C(Nc2ccc(C(=N)N)cc2)C(=O)NC(c2ccccc2)c2ccccc2)cc1OC (racemic) [Example 5c, (R,S)-N-benzhydryl-2-(4-carbamimidoylphenylamino)-2-(3,4-dimethoxyphenyl)acetamide hydrochloride]  160 nM
8. COc1cc(C(Nc2ccc(C(=N)N)cc2)C(=O)Nc2ccccc2)ccc1OCc1ccccc1 (racemic) [Example 7s, (R,S)-2-(4-benzyloxy-3-methoxyphenyl)-2-(4-carbamimidoylphenylamino)-N-phenylacetamide acetate]  170 nM
9. COc1cc(C(Nc2ccc(C(=N)N)cc2)C(=O)NCc2ccccc2)ccc1OCc1ccc2cnccc2c1 (racemic) [Example 7n]  170 nM
10. COc1cc(C(Nc2ccc(C(=N)N)cc2)C(=O)NCc2ccccc2)ccc1OCc1ccncc1 (stereo not shown) [Example 7a, N-benzyl-2-(4-carbamimidoylphenylamino)-2-[3-methoxy-4-(pyridin-4-ylmethoxy)phenyl]acetamide acetate]  190 nM
11. COc1cc(OC)cc(C(Nc2ccc(C(=N)N)cc2)C(=O)NCc2ccccc2)c1 (racemic) [Example 5b, (R,S)-N-benzyl-2-(4-carbamimidoylphenylamino)-2-(3,5-dimethoxyphenyl)acetamide hydrochloride]  190 nM
12. COc1cc(C(Nc2ccc(C(=N)N)cc2)C(=O)NCc2ccccc2)ccc1OCCc1ccccc1 (racemic) [Example 7h, (R,S)-N-benzyl-2-(4-carbamimidoylphenylamino)-2-[3-methoxy-4-phenethyloxyphenyl)acetamide acetate]  210 nM
13. COc1cccc(COc2ccc(C(Nc3ccc(C(=N)N)cc3)C(=O)NCc3ccccc3)cc2OC)c1 (racemic) [Example 6, (R,S)-N-benzyl-2-(4-carbamimidoylphenylamino)-2-[3-methoxy-4-(3-methoxybenzyloxy)phenyl]) acetamide acetate]  220 nM
14. COc1cc(C(Nc2ccc(C(=N)N)cc2)C(=O)NCc2ccccc2)ccc1OCc1ccc2c(c1)NCCC2 (racemic) [Example 7f, (R,S)-N-benzyl-2-(4-carbamimidoylphenylamino)-2-[3-methoxy-4-(1,2,3,4-tetrahydroquinolin-7-ylmethoxy)phenyl]acetamide acetate]  260 nM
15. COc1ccc(C(Nc2ccc(C(=N)N)cc2)C(=O)NCc2ccccc2)cc1OC (racemic) [Example 2a, (R,S)-N-benzyl-2-(4-carbamimidoylphenylamino)-2-(3,4-dimethoxyphenyl)acetamide hydrochloride]  280 nM
16. COc1cc(C(Nc2ccc(C(=N)N)cc2)C(=O)NCc2ccccc2)cc(OC)c1OC (racemic) [Example 5a, (R,S)-N-benzyl-2-(4-carbamimidoylphenylamino)-2-(3,4,5-trimethoxyphenyl)acetamide hydrochloride]  280 nM
